Measurements: ChEMBL document CHEMBL5352486, “Design, synthesis, in vitro - In vivo biological evaluation of novel thiazolopyrimidine compounds as antileishmanial agent with PTR1 inhibition” (Eur J Med Chem, 2023)
Values after ≈ are worked out from the molar mass of the structure shown.

How the values were obtained:
Leishmania tropica [1] = test: Antileishmanial activity against Leishmania tropica MHOM/A7/1974/SAF-K27 incubated for 48 hrs by Neubauer hemocytometer analysis; assay type: functional, organism-based; conditions: MHOM/A7/1974/SAF-K27, 48 h
Leishmania infantum [2] = test: Antileishmanial activity against Leishmania infantum MHOM/TN/1980/IPT1 incubated for 48 hrs by Neubauer hemocytometer analysis; assay type: functional, organism-based; conditions: MHOM/TN/1980/IPT1, 48 h
Leishmania tropica [3] = test: Antileishmanial activity against Leishmania tropica MHOM/A7/1974/SAF-K27 incubated for 48 hrs by XTT method; assay type: functional, organism-based; conditions: MHOM/A7/1974/SAF-K27, 48 h
Leishmania infantum [4] = test: Antileishmanial activity against Leishmania infantum MHOM/TN/1980/IPT1 incubated for 48 hrs by XTT method; assay type: functional, organism-based; conditions: MHOM/TN/1980/IPT1, 48 h
Pteridine reductase 1 = target: T1, Pteridine reductase 1 (Leishmania major, UniProt Q01782); test: Inhibition of recombinant Leishmania major PTR1 expressed in Escherichia coli BL21 using folic acid as substrate in presence of NADPH
T1 sequence (Q01782 whole entry): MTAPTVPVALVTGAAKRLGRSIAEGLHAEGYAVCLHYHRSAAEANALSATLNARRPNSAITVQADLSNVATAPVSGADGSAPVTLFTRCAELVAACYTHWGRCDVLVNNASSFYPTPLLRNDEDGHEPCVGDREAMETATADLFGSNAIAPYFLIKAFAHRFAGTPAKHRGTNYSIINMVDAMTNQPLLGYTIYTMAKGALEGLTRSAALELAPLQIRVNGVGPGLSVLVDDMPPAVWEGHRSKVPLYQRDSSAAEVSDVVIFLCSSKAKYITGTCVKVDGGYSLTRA

Dihydrofolate reductase = target: T2, Dihydrofolate reductase (Homo sapiens, UniProt P00374); test: Inhibition of human DHFR using dihydrofolate as substrate in presence of NADPH; assay type: toxicity
T2 sequence (P00374 whole entry): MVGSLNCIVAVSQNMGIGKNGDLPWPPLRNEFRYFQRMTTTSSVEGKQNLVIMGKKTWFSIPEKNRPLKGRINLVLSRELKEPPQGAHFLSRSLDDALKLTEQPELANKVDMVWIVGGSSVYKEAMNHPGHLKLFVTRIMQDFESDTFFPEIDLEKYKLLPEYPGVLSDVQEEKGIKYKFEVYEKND

[5] = test system: DHFR (human) versus PTR1 (Leishmania major); test: Selectivity index, ratio of IC50 for human DHFR to IC50 for Leishmania major PTR1; assay type: toxicity; conditions: human DHFR enzyme and Leishmania major PTR1 enzyme, read-out: Ratio IC50
[6] = (§1) Cytotoxicity against mouse L929 cells by alamar blue method; assay type: toxicity, cell-based; conditions: mouse, L929 cells
L929 = test: as §1; assay type: toxicity, cell-based; conditions: l929
[7] = (§2) Cytotoxicity against mouse RAW264.7 cells by alamar blue method; assay type: toxicity, cell-based; conditions: mouse, RAW264.7 cells
RAW264.7 = test: as §2; assay type: toxicity, cell-based; conditions: raw264.7

IC50 (Leishmania tropica [1]) [µg/mL]	IC50 (Leishmania infantum [2]) [µg/mL]	IC50 (Pteridine reductase 1) [µM]	SMILES	IC50 (Leishmania tropica [3]) [µg/mL]	IC50 (Leishmania infantum [4]) [µg/mL]	IC50 (Dihydrofolate reductase) [µM]	selectivity ratio [5]	IC50 [6] [µg/mL]	log10 IC50 (µg/mL) (L929)	IC50 [7] [µg/mL]	log10 IC50 (µg/mL) (RAW264.7)
10.2 (≈ 25.1 µM)	12.3 (≈ 30.3 µM)	14.9	O=C(Nc1nc2cnc(N3CCCC3)nc2s1)c1ccc(Cl)c([N+](=O)[O-])c1	10.6 (≈ 26.2 µM)	12.7 (≈ 31.3 µM)	373	25.1	24.4 (≈ 60.2 µM)	1.39	8.98 (≈ 22.2 µM)	0.95
15.6 (≈ 40.2 µM)	15.7 (≈ 40.3 µM)	28.4	CN1CCN(c2ncc3nc(NC(=O)c4ccc(Cl)cc4)sc3n2)CC1	15.3 (≈ 39.4 µM)	15.4 (≈ 39.7 µM)	271	9.54	25.7 (≈ 66.1 µM)	1.41	14.1 (≈ 36.3 µM)	1.15
